# Values of other authors, collected in publication PMC3635145 (Journal of medicinal chemistry, 2013).
# Target: T1, TbrPDEB1 (Trypanosoma brucei, UniProt Q8WQX9)
# T1 sequence (Q8WQX9 1-930): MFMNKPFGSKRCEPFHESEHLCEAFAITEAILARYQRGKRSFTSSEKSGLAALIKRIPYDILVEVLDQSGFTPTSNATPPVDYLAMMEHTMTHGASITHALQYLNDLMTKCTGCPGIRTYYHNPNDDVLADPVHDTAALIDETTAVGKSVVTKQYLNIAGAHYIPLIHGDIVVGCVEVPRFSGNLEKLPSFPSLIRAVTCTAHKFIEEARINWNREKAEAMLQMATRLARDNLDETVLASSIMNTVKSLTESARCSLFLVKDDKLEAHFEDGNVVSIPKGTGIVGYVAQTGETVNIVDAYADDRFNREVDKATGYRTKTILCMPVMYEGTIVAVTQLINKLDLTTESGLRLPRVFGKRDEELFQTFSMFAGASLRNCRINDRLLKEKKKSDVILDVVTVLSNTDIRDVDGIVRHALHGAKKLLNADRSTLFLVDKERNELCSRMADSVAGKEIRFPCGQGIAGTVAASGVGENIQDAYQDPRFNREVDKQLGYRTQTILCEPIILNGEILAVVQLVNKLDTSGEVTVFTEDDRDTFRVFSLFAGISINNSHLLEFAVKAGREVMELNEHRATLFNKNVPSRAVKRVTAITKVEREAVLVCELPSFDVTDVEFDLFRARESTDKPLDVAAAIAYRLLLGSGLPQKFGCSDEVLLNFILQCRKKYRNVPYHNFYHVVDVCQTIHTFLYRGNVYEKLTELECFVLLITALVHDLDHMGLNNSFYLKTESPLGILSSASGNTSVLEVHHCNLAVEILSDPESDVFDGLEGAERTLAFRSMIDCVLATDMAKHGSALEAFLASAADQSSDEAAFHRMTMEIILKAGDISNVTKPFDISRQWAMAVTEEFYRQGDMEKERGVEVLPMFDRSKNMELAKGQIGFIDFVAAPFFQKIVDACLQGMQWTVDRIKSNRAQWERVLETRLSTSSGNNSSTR
structure (smiles),measurement,value
"COc1ccc(C(=O)CC(C)C)cc1OCCCCO [compound 5, 1-(3-(4-hydroxybutoxy)-4-methoxyphenyl)-3-methylbutan-1-one]",TbrPDEB1 inhibition (in words),appears to inhibit TbrPDEB1 to some extent
